Measurements published in patent US10017514B2, “6,7-dihydropyrazolo[1,5-α]pyrazin-4(5H)-one compounds and their use as negative allosteric modulators of mGluR2 receptors” (Janssen Pharmaceutica NV, priority 2014, dated 2018).

Tests used:
human mGlu2 receptor = target: T1, human mGlu2 receptor (Homo sapiens, UniProt Q14416); experiment: [35S]GTPγS binding assay, mGluR2 negative allosteric modulation; assay type: biochemical; settings: for Emax: maximal % inhibition relative to the control glutamate response (EC80 glutamate), read-out: GTPγS-hmGluR2 anGT Emax; for IC50: membranes from CHO cells transfected with human mGlu2 receptor, glutamate ~EC80 (60 μM), read-out: GTPγS-hmGluR2 anGT pIC50 (converted)
T1 construct: expressed in transfected cells; host or cells: CHO cells (membrane preparation)
T1 sequence (Q14416 19-872): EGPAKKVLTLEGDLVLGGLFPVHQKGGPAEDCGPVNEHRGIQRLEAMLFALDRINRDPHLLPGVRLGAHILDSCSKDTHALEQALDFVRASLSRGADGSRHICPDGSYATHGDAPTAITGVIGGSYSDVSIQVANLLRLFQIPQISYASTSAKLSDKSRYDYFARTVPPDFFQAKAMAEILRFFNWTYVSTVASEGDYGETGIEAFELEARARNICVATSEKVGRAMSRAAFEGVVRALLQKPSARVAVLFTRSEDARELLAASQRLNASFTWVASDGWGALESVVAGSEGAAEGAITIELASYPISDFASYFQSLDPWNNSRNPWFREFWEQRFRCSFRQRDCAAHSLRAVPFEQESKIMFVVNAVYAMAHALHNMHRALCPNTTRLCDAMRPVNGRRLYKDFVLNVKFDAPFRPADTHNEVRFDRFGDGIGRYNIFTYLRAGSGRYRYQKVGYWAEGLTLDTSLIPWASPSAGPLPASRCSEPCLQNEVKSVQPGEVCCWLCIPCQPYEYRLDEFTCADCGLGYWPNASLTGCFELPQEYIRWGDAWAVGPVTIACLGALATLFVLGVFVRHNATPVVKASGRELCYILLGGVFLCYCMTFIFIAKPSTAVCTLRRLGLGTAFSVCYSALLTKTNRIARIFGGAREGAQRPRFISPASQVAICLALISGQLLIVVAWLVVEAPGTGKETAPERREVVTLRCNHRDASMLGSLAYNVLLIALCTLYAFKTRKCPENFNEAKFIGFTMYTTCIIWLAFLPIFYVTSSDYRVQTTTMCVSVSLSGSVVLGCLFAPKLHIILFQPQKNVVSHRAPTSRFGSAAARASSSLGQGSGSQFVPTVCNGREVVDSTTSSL
Protocol: Total reaction volume was 200 μl. […] Membrane-bound radioactivity was counted in a Topcount.

rats = experiment: Reversal of the effect of the mGluR2 PAM JNJ-42153605-induced inhibition of scopolamine-induced hyperlocomotion; assay type: in vivo, rat; settings: Rattus norvegicus; rats; PO, 60 min pretreatment; JNJ-42153605 20 mg/kg i.v. + scopolamine 0.16 mg/kg i.v.; criterion total distance >1500 cm in 30 min; read-out: SCOP JNJ-42153605 ED50
Protocol: Motor activity was measured in microprocessor-based motor activity arenas (closed gray PVC cylinders with a height of 39 cm and a diameter of 31 cm). Each arena was placed on an infrared LED (8×8 LEDs) lit box (white PVC squared box; 40×40 cm^2; height 12.5 cm. An infrared-sensitive tube camera and a white light source were mounted to the ceiling above the observation chamber to track the animal. […] Noldus, Wageningen, The Netherlands). The intensity of the light within the activity cages (measured in the centre at the level of the floor) ranged between 4 and 8 LUX. The rats were pretreated with test compound or vehicle at 60 min before the start of the activity recordings and placed into individual cages. […] WO2010/130424; Cid et al. J. Med.

Emax (human mGlu2 receptor) [%]	IC50 (human mGlu2 receptor) [nM]	melting point [°C]	SMILES	ED50 (rats) [mg/kg]
106	11.2	215.1	C[C@H]1CN(c2ccc(C(F)(F)F)cc2)C(=O)c2c(-c3cc(-c4cccnc4)on3)cnn21 [Co. No. 5, (7S)-7-methyl-3-[5-(3-pyridyl)isoxazol-3-yl]-5-[4-(trifluoromethyl)phenyl]-6,7-dihydropyrazolo[1,5-a]pyrazin-4-one]	0.51
110	2.45	156.64	C[C@H]1CN(c2ccc(C(F)(F)F)c(Cl)c2)C(=O)c2c(-c3cc(-c4cccnc4)on3)cnn21 [Co. No. 11, (7S)-5-[3-chloro-4-(trifluoromethyl)phenyl]-7-methyl-3-[5-(3-pyridyl)isoxazol-3-yl]-6,7-dihydropyrazolo[1,5-a]pyrazin-4-one]	> 0.63
109	2.24	197.33	Cc1ccncc1-c1cc(-c2cnn3c2C(=O)N(c2ccc(C(F)(F)F)cc2)C[C@@H]3C)no1 [Co. No. 18, (7S)-7-Methyl-3-[5-(4-methyl-3-pyridyl)isoxazol-3-yl]-5-[4-(trifluoromethyl)phenyl]-6,7-dihydropyrazolo[1,5-a]pyrazin-4-one]	0.51
106	4.79	188.25	C[C@H]1CN(c2ccc(C(F)(F)F)c(Cl)c2)C(=O)c2c(-c3cc(-c4ccccn4)on3)cnn21 [Co. No. 10, (7S)-5-[3-chloro-4-(trifluoromethyl)phenyl]-7-methyl-3-[5-(2-pyridyl)isoxazol-3-yl]-6,7-dihydropyrazolo[1,5-a]pyrazin-4-one]	> 0.63
113	1.41	149.63	Cc1ccncc1-c1cc(-c2cnn3c2C(=O)N(c2ccc(C(F)(F)F)c(Cl)c2)C[C@@H]3C)no1 [Co. No. 20, (7S)-5-[3-chloro-4-(trifluoromethyl)phenyl]-7-methyl-3-[5-(4-methyl-3-pyridyl)isoxazol-3-yl]-6,7-dihydropyrazolo[1,5-a]pyrazin-4-one]	0.51
110	2.09	171.25	Cc1ccncc1-c1cc(-c2cnn3c2C(=O)N(c2ccc(C(F)(F)F)c(C)c2)C[C@@H]3C)no1 [Co. No. 22, (7S)-7-methyl-3-[5-(4-methyl-3-pyridyl)isoxazol-3-yl]-5-[3-methyl-4-(trifluoromethyl)phenyl]-6,7-dihydropyrazolo[1,5-a]pyrazin-4-one]	> 0.63
103	2.04	233.79	C[C@H]1CN(c2ccc(C(F)(F)F)cc2)C(=O)c2c(-c3cc(-c4ccc(N)nc4)on3)cnn21 [Co. No. 2, (7S)-3-[5-(6-Amino-3-pyridyl)isoxazol-3-yl]-7-methyl-5-[4-(trifluoromethyl)phenyl]-6,7-dihydropyrazolo[1,5-a]pyrazin-4-one]	0.5
108	5.5	120.21	Cc1cc(N2C[C@H](C)n3ncc(-c4cc(-c5cccnc5)on4)c3C2=O)ccc1C(F)(F)F [Co. No. 15, (7S)-7-methyl-5-[3-methyl-4-(trifluoromethyl)phenyl]-3-[5-(3-pyridyl)isoxazol-3-yl]-6,7-dihydropyrazolo[1,5-a]pyrazin-4-one]	> 0.63
